Ki data for one molecule are collected here from paper PMC6930622, “Validation of an HPLC Method for the Simultaneous Quantification of Metabolic Reaction Products Catalysed by CYP2C11 Enzymes in Rat Liver Microsomes: In Vitro Inhibitory Effect of Salicylic Acid on CYP2C11 Enzyme” (Molecules, 2019).

Each structure is given as a SMILES string.

This assay addresses T1, CYP2C11 (Rattus norvegicus, UniProt P08683).
T1 sequence (P08683 1-500): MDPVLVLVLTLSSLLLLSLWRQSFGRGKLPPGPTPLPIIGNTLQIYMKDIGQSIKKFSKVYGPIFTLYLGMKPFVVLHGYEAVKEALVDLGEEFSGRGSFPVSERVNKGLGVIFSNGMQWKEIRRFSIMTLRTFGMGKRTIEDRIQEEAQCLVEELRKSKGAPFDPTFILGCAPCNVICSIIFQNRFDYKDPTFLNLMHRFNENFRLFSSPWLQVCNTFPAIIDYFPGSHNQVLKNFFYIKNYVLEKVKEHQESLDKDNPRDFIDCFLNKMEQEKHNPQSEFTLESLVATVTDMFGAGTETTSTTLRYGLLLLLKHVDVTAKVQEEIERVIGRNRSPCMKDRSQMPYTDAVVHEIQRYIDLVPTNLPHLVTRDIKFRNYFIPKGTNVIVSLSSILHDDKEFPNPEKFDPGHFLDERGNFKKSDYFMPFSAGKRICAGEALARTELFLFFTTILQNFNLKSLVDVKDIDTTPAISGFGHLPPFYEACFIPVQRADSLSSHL
Nature of the assay: testosterone […]α-hydroxylation in pooled male Sprague-Dawley rat liver microsomes, HPLC; Lineweaver-Burk. In kind it is biochemical. In general terms: Liver microsomes are a subcellular fraction often used to study metabolism.

The term Ki denotes a measure of affinity in units of concentration, obtained from inhibition or displacement.

Regarding `O=C(O)c1ccccc1O` [salicylic acid], the Ki was determined as 84.6 ± 2.67 µM.
